For the experiment, the target named is T1, hFASN enzyme (full length) (Homo sapiens, UniProt P49327).
T1 construct: 10 μL hFASN enzyme (full length, 300 ng, purified in house); made in house
The experiment can be described thus: Fatty Acid Synthase (FASN) inhibition scintillation proximity assay. Particulars: for inhibition at 10 µM: read-out: Human FASN % inhibition @ 10 μM, 10 μM test compound; for IC50: read-out: Human FASN pIC50 (converted). The class given is biochemical. In a few lines:
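Compounds at 0.01–30 μM were mixed with 300 ng purified full-length enzyme in 100 mM KH2PO4 pH 7.5, 1 mM DTT. Substrates ³H-acetyl-CoA and malonyl-CoA were then converted, and bead addition stopped the reaction. Signal was normalised to low and high plate controls and fitted by 4-parameter nonlinear regression.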
For orientation: In a scintillation proximity assay essentially only radioactivity close to the scintillant gives light.

T1 sequence (P49327 whole entry): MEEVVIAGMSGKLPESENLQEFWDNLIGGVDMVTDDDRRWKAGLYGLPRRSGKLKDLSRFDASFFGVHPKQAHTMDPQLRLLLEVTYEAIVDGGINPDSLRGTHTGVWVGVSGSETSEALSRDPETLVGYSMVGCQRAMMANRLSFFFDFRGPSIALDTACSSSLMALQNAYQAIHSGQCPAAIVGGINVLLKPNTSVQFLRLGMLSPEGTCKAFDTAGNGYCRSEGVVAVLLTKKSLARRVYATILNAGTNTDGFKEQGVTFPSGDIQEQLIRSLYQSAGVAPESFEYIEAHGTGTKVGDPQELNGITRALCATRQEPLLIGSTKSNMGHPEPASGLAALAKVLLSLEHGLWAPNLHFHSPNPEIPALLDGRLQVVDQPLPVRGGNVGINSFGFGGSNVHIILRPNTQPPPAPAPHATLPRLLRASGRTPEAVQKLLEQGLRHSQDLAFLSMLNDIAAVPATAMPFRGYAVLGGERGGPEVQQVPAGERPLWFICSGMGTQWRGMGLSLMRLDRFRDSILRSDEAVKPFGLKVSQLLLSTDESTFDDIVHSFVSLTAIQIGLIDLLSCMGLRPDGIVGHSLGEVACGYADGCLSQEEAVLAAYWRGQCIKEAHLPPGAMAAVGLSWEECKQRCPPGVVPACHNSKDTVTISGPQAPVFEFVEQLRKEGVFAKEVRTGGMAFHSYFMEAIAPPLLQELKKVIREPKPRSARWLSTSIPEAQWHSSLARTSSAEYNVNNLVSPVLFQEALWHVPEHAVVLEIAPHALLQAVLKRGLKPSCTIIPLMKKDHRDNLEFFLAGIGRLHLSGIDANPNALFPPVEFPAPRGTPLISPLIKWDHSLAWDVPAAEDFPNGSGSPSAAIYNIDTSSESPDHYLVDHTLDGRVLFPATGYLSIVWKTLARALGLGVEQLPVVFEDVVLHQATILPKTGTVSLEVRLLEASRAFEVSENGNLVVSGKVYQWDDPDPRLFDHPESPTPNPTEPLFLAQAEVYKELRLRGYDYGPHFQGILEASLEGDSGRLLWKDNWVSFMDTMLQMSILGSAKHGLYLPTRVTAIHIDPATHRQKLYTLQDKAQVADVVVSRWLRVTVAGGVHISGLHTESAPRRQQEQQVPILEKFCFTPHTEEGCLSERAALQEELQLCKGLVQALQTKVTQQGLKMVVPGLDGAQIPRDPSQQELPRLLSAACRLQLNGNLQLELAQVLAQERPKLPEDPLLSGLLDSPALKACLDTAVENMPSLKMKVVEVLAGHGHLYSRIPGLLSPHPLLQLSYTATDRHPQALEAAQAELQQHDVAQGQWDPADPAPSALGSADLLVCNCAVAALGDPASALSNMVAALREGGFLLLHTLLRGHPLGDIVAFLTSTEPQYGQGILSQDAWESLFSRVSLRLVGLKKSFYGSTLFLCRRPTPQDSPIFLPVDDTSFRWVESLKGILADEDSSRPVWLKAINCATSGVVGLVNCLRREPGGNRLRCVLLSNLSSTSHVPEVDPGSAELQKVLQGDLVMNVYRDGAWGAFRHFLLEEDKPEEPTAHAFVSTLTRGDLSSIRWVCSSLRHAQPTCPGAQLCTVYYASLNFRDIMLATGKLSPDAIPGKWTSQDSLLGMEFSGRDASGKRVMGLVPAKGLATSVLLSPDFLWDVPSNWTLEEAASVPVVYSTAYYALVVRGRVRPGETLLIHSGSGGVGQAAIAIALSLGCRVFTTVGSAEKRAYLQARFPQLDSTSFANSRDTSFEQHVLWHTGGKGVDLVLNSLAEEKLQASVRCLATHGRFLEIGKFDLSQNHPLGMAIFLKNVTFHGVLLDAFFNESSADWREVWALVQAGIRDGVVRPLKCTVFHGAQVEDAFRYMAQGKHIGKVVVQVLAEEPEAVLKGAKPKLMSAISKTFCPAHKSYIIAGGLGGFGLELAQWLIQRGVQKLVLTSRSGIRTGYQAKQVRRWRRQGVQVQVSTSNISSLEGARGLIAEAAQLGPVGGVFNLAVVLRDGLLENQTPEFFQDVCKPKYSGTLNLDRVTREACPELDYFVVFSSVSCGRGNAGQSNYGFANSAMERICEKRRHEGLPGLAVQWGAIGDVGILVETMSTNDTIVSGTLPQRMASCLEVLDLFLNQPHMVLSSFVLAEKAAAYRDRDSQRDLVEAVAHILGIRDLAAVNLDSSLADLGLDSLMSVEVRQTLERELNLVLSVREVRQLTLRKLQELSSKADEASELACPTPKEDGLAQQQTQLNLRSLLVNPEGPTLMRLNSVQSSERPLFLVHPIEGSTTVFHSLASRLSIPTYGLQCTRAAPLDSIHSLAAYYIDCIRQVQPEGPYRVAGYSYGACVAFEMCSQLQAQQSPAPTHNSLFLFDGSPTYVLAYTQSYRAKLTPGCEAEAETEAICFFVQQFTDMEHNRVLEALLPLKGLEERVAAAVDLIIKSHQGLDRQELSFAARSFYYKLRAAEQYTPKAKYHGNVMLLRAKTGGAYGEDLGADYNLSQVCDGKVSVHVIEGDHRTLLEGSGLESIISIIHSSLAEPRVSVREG

Consider `CN1CCN(c2cc(-c3ccc(C4=NC5(CCCC5)C(=O)N4C[C@@H]4CCN(C(=O)C5CC5)C4)cc3)ccn2)CC1` [compound 829, (R)-3-((1-(cyclopropanecarbonyl)pyrrolidin-3-yl)methyl)-2-(4-(2-(4-methylpiperazin-1-yl)pyridin-4-yl)phenyl)-1,3-diazaspiro[4.4]non-1-en-4-one], for which the inhibition at 10 µM was 7% and the IC50 was above 10 µM.
Turning to `Cc1cc(-c2cncc(Cl)c2)ccc1C1=NC2(CCCC2)C(=O)N1C[C@@H]1CCN(C(=O)C2CC2)C1` [compound 855, (R)-2-(4-(5-chloropyridin-3-yl)-2-methylphenyl)-3-((1-(cyclopropanecarbonyl)pyrrolidin-3-yl)methyl)-1,3-diazaspiro[4.4]non-1-rn-4-one], the inhibition at 10 µM is 52% and the IC50 is above 10 µM.
For `O=C(C1CC1)N1CCC(CN2C(=O)C3(CC3)N=C2c2ccc(-c3ccc(C(F)(F)F)cc3)cc2)CC1` [compound 859, 6-((1-(cyclopropanecarbonyl)piperidin-4-yl)methyl)-5-(4′-(trifluoromethyl)-[1,1′-biphenyl]-4-yl)-4,6-diazaspiro[2.4]hept-4-en-7-one], under “10 μM test compound, 10 µM”, the “Human FASN % inhibition @ 10 μM” value turned out to be 11%. In addition, where the note is “hFASN enzyme, full length, "~" means standard error of the pIC50 is larger than 0.5”, the “Human FASN pIC50” value is below 5.
Take `Nc1cncc(-c2ccc(C3=NC4(CC4)C(=O)N3C[C@@H]3CCN(C(=O)C4CC4)C3)cc2)c1` [compound 867, (R)-5-(4-(5-aminopyridi9n-3-yl)phenyl)-6-((1-(cyclopropanecarbonyl)pyrrolidin-3-yl)methyl)-4,6-diazaspiro[2.4]hept-4-en-7-one]: the inhibition at 10 µM was 44% and the IC50 was above 10 µM.
For the compound `Cc1cc2cc(-c3ccc(C4=NC5(CC5)C(=O)N4CC4CN(C(=O)C5CC5)C4)c(F)c3)ccc2[nH]1` [compound 869, 6-((1-(cyclopropanecarbonyl)azetidin-3-yl)methyl)-5-(2-fluoro-4-(2-methyl-1H-indol-5-yl)phenyl)-4,6-diazaspiro[2.4]hept-4-en-7-one], the IC50 is 0.0468 µM.
For the compound `Cn1ccc2cc(-c3ccc(C4=NC5(CC5)C(=O)N4CC4CN(C(=O)C5CC5)C4)c(F)c3)ccc21` [compound 870, 6-((1-(cyclopropanecarbonyl)azetidin-3-yl)methyl)-5-(2-fluoro-4-(1-methy7l-1H-indol-5-yl)phenyl)-4,6-diazaspiro[2.4]hept-4-en-7-one], the IC50 was 0.0269 µM.
As to `CC(=O)c1ccc(-c2ccc(C3=NC4(CCCC4)C(=O)N3C[C@@H]3CCN(C(=O)C4CC4)C3)c(F)c2)cc1` [compound 886, (R)-2-(4′-acetyl-3-fluoro-[1,1′-biphenyl]-4-yl)-3-((1-(cyclopropanecarbonyl)pyrrolidin-3-yl)methyl)-1,3-diazaspiro[4.4]non-1-en-4-one], the inhibition at 10 µM was found to be 79% and the IC50 was 1.91 µM.
The corresponding values for `O=C(C1CC1)N1CC(CN2C(=O)C3(CC3)N=C2c2ccc(-c3ccc(Br)cn3)cc2)C1` [compound 887, 5-(4-(5-bromopyridin-2-yl)phenyl)-6-((1-(cyclopropanecarbonyl)azetidin-3-yl)methyl)-4,6-diazaspiro[2.4]hept-4-en-7-one] are 73% and 4.07 µM.
`CS(=O)(=O)N1CC(CN2C(=O)C3(CCOCC3)N=C2c2ccc(-c3ccc4occc4c3)cc2)C1` [compound 888, 2-(4-(benzofuran-5-yl)phenyl)-3-((1-(methylsulfonyl)azetidin-3-yl)methyl)-8-oxa-1,3-diazaspiro[4.5]dec-1-en-4-one]: the inhibition at 10 µM is 1% and the IC50 was above 10 µM.
The corresponding values for `COC(=O)N1CC[C@@H](CN2C(=O)C3(CCOCC3)N=C2c2ccc(-c3ccc4occc4c3)cc2)C1` [compound 889, (S)-methyl 3-((2-(4-(benzofuran-5-yl)phenyl)-4-oxo-8-oxa-1,3-diazaspiro[4.5]dec-1-en-3-yl)methyl)pyrrolidin-1-carboxylate] are 44% and above 10 µM.
As for `Cn1ncc2cc(-c3ccc(C4=NC5(CCOCC5)C(=O)N4C[C@@H]4CCN(C(=O)C(F)(F)F)C4)cc3)ccc21` [compound 890, (R)-2-(4-(1-methyl-1H-indazol-5-yl)phenyl)-3-((1-(2,2,2-trifluoroacetyl)pyrrolidin-3-yl)methyl)-8-oxa-1,3-diazaspiro[4.5]dec-1-en-4-one], the inhibition at 10 µM came to 37% and the IC50 is above 10 µM.
The corresponding values for `Cn1ncc2cc(-c3ccc(C4=NC5(CCOC5)C(=O)N4C[C@@H]4CCN(C(=O)c5nccs5)C4)cc3)ccc21` (stereo partly drawn) [compound 892, 2-(4-(1-methyl-1H-indazol-5-yl)phenyl)-3-(((R)-1-(thiazole-2-carbonyl)pyrrolidin-3-yl)methyl)-7-oxa-1,3-diazxaspiro[4.4]non-1-en-4-one] are -29% and above 10 µM.
The corresponding values for `Cn1cc(-c2ccc(-c3ccc(C4=NC5(CCOCC5)C(=O)N4CC4CN(C(=O)C(F)(F)F)C4)cc3)cc2)cn1` [compound 893, 2-(4′-(1-methyl-1H-pyrazol-4-yl)-[1,1′-biphenyl]-4-yl)-3-((1-(2,2,2-trifluoroacetyl)azetidin-3-yl)methyl)-8-oxa-1,3-diazaspiro[4.5]dec-1-en-4-one] are -12% and above 10 µM.
As for `COC(=O)N1CC[C@@H](CN2C(=O)C3(CCOC3)N=C2c2ccc(-c3ccc(-c4cnn(C)c4)cc3)cc2)C1` (stereo partly drawn) [compound 894, (3S)-methyl 3-((2-(4′-(1-methyl-1H-pyrazol-4-yl)-[1,1′-biphenyl]-4-yl)-4-oxo-7-oxa-1,3-diazaspiro[4.4]non-1-en-3-yl)methyl)pyrrolidin-1-carboxylate], the inhibition at 10 µM is 20% and the IC50 is above 10 µM.
The corresponding values for `O=C(N1CC(CN2C(=O)C3(CCOC3)N=C2c2ccc(-c3ccc4cccnc4c3)cc2)C1)C(F)(F)F` (stereo not shown) [compound 895, 2-(4-(quinolin-7-yl)phenyl)-3-((1-(2,2,2-trifluoroacetyl)azetidin-3-yl)methyl)-7-oxa-1,3-diazaspiro[4.4]non-1-en-4-one] are 6% and above 10 µM.
As for `Cn1cc(-c2ccc(-c3ccc(C4=NC5(CCOC5)C(=O)N4CC4CN(C(=O)c5nccs5)C4)cc3)cc2)cn1` (stereo not shown) [compound 901, 2-(4′-(1-methyl-1H-pyrazol-4-yl)-[1,1′-biphenyl]-4-yl)-3-((1-(thiazol-2-carbonyl)azetidin-3-yl)methyl)-7-oxa-1,3-diazaspiro[4.4]non-1-en-4-one], the inhibition at 10 µM came out at 2% and the IC50 was above 10 µM.
The corresponding values for `Cn1ncc2cc(-c3ccc(C4=NC5(CCOCC5)C(=O)N4CC4CN(S(C)(=O)=O)C4)cc3)ccc21` [compound 902, 2-(4-(1-methyl-1H-indazol-5-yl)phenyl)-3-((1-(methylsulfonyl)azetidin-3-yl)methyl)-8-oxa-1,3-diazaspiro[4.5]dec-1-en-4-one] are 6% and above 10 µM.
Regarding `COC(=O)N1CC(CN2C(=O)C3(CCOC3)N=C2c2ccc(-c3ccc4cccnc4c3)cc2)C1` (stereo not shown) [compound 903, methyl 3-((4-oxo-2-(4-(quinolin-7-yl)phenyl)-7-oxa-1,3-diazaspiro[4.4]non-1-en-3-yl)methyl)azetidine-1-carboxylate], the inhibition at 10 µM is 15% and the IC50 was above 10 µM.
Regarding `COC(=O)N1CC(CN2C(=O)C3(CCOC3)N=C2c2ccc(-c3ccc4occc4c3)cc2)C1` (stereo not shown) [compound 904, methyl 3-((2-(4-(benzofuran-5-yl)phenyl)-4-oxo-7-oxa-1,3-diazaspiro[4.4]non-1-en-3-yl)methyl)azetidin-1-carboxylate], the inhibition at 10 µM is -24% and the IC50 is above 10 µM.
Taken in the same sequence, the figures for `COC(=O)N1CC(CN2C(=O)C3(CCOC3)N=C2c2ccc(-c3ccc4c(cnn4C)c3)cc2)C1` (stereo not shown) [compound 905, methyl 3-((2-(4-(1-methyl-1H-indazol-5-yl)phenyl)-4-oxo-7-oxa-1,3-diazaspiro[4.4]non-1-en-3-yl)methyl)azetidine-1-carboxylate] were -7% and above 10 µM.
In the case of `COC(=O)N1CC[C@@H](CN2C(=O)C3(CN(C(=O)OC)C3)N=C2c2ccc(-c3ccc(-c4cnn(C)c4)cc3)cc2)C1` [compound 906, (S)-methyl 7-((1-(methoxycarbonyl)pyrrolidin-3-yl)methyl)-6-(4′-(1-methyl-1H-pyrazol-4-yl)-[1,1′-biphenyl]-4-yl)-8-oxo-2,5,7-triazaspiro[3.4]oct-5-ene-2-carboxylate], the inhibition at 10 µM was 14% and the IC50 is above 10 µM.
Taken in the same sequence, the figures for `COC(=O)N1CC2(C1)N=C(c1ccc(-c3ccc4c(cnn4C)c3)cc1)N(C[C@@H]1CCN(C(=O)C(F)(F)F)C1)C2=O` [compound 907, (R)-methyl 6-(4-(1-methyl-1H-indazol-5-yl)phenyl)-8-oxo-7-((1-(2,2,2-trifluoroacetyl)pyrrolidin-3-yl)methyl)-2,5,7-triazaspiro[3.4]oct-5-ene-2-carboxylate] were 21% and above 10 µM.
As to `Cn1ncc2cc(-c3ccc(C4=NC5(CCOCC5)C(=O)N4CC4CN(C(=O)c5nccs5)C4)cc3)ccc21` [compound 908, 2-(4-(1-methyl-1H-indazol-5-yl)phenyl)-3-((1-(thiazole-2-carbonyl)azetidin-3-yl)methyl)-8-oxa-1,3-diazaspiro[4.5]dec-1-en-4-one], the inhibition at 10 µM turned out to be 2% and the IC50 is above 10 µM.
Take `Cn1ncc2cc(-c3ccc(C4=NC5(CCOC5)C(=O)N4CC4CN(C(=O)c5nccs5)C4)cc3)ccc21` (stereo not shown) [compound 909, 2-(4-(1-methyl-1H-indazol-5-yl)phenyl)-3-((1-(thiazole-2-carbonyl)azetidin-3-yl)methyl)-7-oxa-1,3-diazaspiro[4.4]non-1-en-4-one]: the inhibition at 10 µM came out at 6% and the IC50 is above 10 µM.

Usually inhibition stands for the drop in the measured response relative to a control, in per cent.

Values taken from patent publication US10077261B2, “Imidazolin-5-one derivative useful as FASN inhibitors for the treatment of cancer” (Janssen Pharmaceutica NV, priority 2012, dated 2018).
